Data on eight molecules can be found in patent US9670227B2, “Thienopyrimidine derivatives, a process for their preparation and pharmaceutical compositions containing them” (LES LABORATOIRES SERVIER, priority 2013, dated 2017).

Structures are written as SMILES. Where two headings read alike, the source gives them in different places.

In the experiment the target is Mcl-1 protein (UniProtKB primary accession number: Q07820) (Homo sapiens, UniProt Q07820). The experiment in a line: Inhibition of Mcl-1 by fluorescence polarisation, Method 1. As to conditions: read-out: IC50 (M) Mcl-1 FP. The format is binding. As for the experimental part: The relative binding potency of each compound was determined via Fluorescence Polarisation (FP).
Mcl-1 protein, sequence (Q07820 whole entry): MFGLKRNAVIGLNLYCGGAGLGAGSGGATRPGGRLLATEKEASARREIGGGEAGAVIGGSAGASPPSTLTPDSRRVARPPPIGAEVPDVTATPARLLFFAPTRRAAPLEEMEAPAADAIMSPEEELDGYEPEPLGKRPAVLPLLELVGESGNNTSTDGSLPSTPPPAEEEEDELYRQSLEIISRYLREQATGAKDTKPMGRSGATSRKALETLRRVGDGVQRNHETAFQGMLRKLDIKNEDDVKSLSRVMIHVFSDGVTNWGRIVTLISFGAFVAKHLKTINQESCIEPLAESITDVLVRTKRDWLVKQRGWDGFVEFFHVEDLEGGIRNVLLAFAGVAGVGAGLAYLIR
An 11 point serial dilution of each compound was prepared in DMSO and 2 μl transferred into flat bottomed, low binding, 384-well plate (final DMSO concentration 5%). 38 μl of buffer (10 mM 4-(2-hydroxyethyl)-1-piperazineethanesulfonic acid [HEPES], 150 mM NaCl, 0.05% Tween 20, pH 7.4), containing the Fluorescein labelled ligand (final concentration 1 nM) and Mcl-1 protein (final concentration 5 nM) was then added.
(In general: Fluorescence polarisation rises when a labelled molecule tumbles more slowly, as on binding a larger partner.)

Setting [1] is: fluorescence polarisation test, Method 2 values are underlined in the patent (underlining not visible here).
[2] abbreviates: fluorescence polarisation, Method 1, or Method 2.

Consider `COc1ccccc1CC(Oc1ncnc2sc(-c3ccco3)c(-c3ccc(OCCN4CCN(C(C)=O)CC4)c(Cl)c3C)c12)C(=O)O` [Example 323, (2R)-2-{[(5Sa)-5-{4-[2-(4-acetylpiperazin-1-yl)ethoxy]-3-chloro-2-methylphenyl}-6-(furan-2-yl)thieno[2,3-d]pyrimidin-4-yl]oxy}-3-(2-methoxyphenyl)propanoic acid], for which the IC50 (as a rule, the midpoint of a concentration-inhibition curve) under setting [1] is 8.8e-09 M.

Regarding `Cc1c(-c2c(-c3ccc(F)cc3)sc3ncnc(OC(Cc4ccccc4OCC4CCCO4)C(=O)O)c23)ccc(OCCN2CCN(CCCCN)CC2)c1Cl` [Example 645, (2R)-2-{[(5Sa)-5-(4-{2-[4-(4-aminobutyl)piperazin-1-yl]ethoxy}-3-chloro-2-methylphenyl)-6-(4-fluorophenyl)thieno[2,3-d]pyrimidin-4-yl]oxy}-3-{2-[(2R)-tetrahydrofuran-2-ylmethoxy]phenyl}propanoic acid], under setting [2], the IC50 came to 2.2e-08 M. As for `Cc1c(-c2c(-c3ccc(F)cc3)sc3ncnc(OC(Cc4ccccc4OCc4ccnc(-c5ccccc5F)n4)C(=O)OCOC(=O)C(C)(C)C)c23)ccc(OCCN2CCN(C)CC2)c1Cl` [Example 854, {[(2R)-2-{[(5Sa)-5-{3-chloro-2-methyl-4-[2-(4-methylpiperazin-1-yl)ethoxy]phenyl}-6-(4-fluorophenyl)thieno[2,3-d]pyrimidin-4-yl]oxy}-3-(2-{[2-(2-fluorophenyl)pyrimidin-4-yl]methoxy}phenyl)propanoyl]oxy}methyl 2,2-dimethylpropanoate], under “fluorescence polarisation test, Method 1, or Method 2 where the value is underlined (underlining not visible)”, the IC50 was 1.72e-07 M. Regarding `CCc1sc2ncnc(OC(Cc3ccccc3)C(=O)O)c2c1-c1ccc(OCc2ccccc2)c(Cl)c1C` [Example 394, (2R)-2-({(5Sa)-5-[4-(benzyloxy)-3-chloro-2-methylphenyl]-6-ethylthieno[2,3-d]pyrimidin-4-yl}oxy)-3-phenylpropanoic acid], under setting [2], the IC50 is 3.4e-08 M. In the case of `Cc1c(-c2c(-c3ccc(F)cc3)sc3ncnc(OC(Cc4ccccc4OCc4ccnn4C(C)(C)C)C(=O)O)c23)ccc(OCCN2CCN(C)CC2)c1Cl` [Example 70, (2R)-3-{2-[(1-tert-butyl-1H-pyrazol-5-yl)methoxy]phenyl}-2-{[(5Sa)-5-{3-chloro-2-methyl-4-[2-(4-methylpiperazin-1-yl)ethoxy]phenyl}-6-(4-fluorophenyl)thieno[2,3-d]pyrimidin-4-yl]oxy}propanoic acid], the IC50 under setting [1] came to 1.6e-09 M.

`Cc1c(-c2c(-c3ccc(F)cc3)sc3ncnc(OC(Cc4ccccc4OCc4ccnc(-c5ccco5)n4)C(=O)O)c23)ccc(OCCN2CCN(C)CC2)c1Cl` [Example 117, (2R)-2-{[(5Sa)-5-{3-chloro-2-methyl-4-[2-(4-methylpiperazin-1-yl)ethoxy]phenyl}-6-(4-fluorophenyl)thieno[2,3-d]pyrimidin-4-yl]oxy}-3-(2-{[2-(furan-2-yl)pyrimidin-4-yl]methoxy}phenyl)propanoic acid]: the IC50 under setting [1] was determined as 6.1e-09 M. As for `CC#Cc1sc2ncnc(OC(Cc3ccccc3OC)C(=O)O)c2c1-c1ccc(OCCN2CCN(C)CC2)c(Cl)c1C` [Example 572, (2R)-2-{[(5Sa)-5-{3-chloro-2-methyl-4-[2-(4-methylpiperazin-1-yl)ethoxy]phenyl}-6-(prop-1-yn-1-yl)thieno[2,3-d]pyrimidin-4-yl]oxy}-3-(2-methoxyphenyl)propanoic acid], the IC50 under setting [2] is 1.9e-08 M. `Cc1c(-c2c(-c3ccc(F)cc3)sc3ncnc(OC(Cc4ccccc4OCc4cncn4C)C(=O)O)c23)ccc(OCCN2CCN(C)CC2)c1Cl` [Example 92, (2R)-2-{[(5Sa)-5-{3-chloro-2-methyl-4-[2-(4-methylpiperazin-1-yl)ethoxy]phenyl}-6-(4-fluorophenyl)thieno[2,3-d]pyrimidin-4-yl]oxy}-3-{2-[(1-methyl-1H-imidazol-5-yl)methoxy]phenyl}propanoic acid]: the IC50 under setting [1] stood at 1.2e-08 M.
